This note sets out measurements from patent US20210364497A1, “IFN-beta Reporter System for Primary Cells” (UNIVERSITY OF MIAMI, priority 2018, published 2021).

The assay has as its system Human IFNβ promoter. As to the kind of experiment: GLuc/SEAP dual reporter assay of the IFNβ promoter in hTERT-pIFNβ-GLuc cells. It counts as cell-based. Particulars: FIG. 3B; hTERT-pIFNB-Gluc cells treated, 3 μg/ml, 24 hours. The protocol:
Human IFNβ promoter (sequence in FIG. 1) was cloned into Lentiviral vector pEZX-LvPG04 at GeneCopoeia. Lentiviral plasmid was co-transfected with LentiViral Package System (LENT-PACT™) into 293T cells using Lipofectamine 2000. 293T medium containing Lentiviral particles was collected 48 hours post transfection, filtered through 0.2 μM filter, and transduced to pre-seeded hTERT cells in the presence of 10 μg/ml polybrene. Transduction was repeated twice in 2 consecutive days. 48 hours after the last transduction, hTERT cells were selected by 2 μg/ml puromycin for 4 weeks. Single colonies of transduced hTERT cells were puromycin selected, and expanded for IENβ promoter-luciferase assay validation.
To test the establishment of GLuc/SEAP-ρIENs1 reporter system, hTERT clones were mock treated (lipo) or transfected with synthetic double-stranded DNA (dsDNA). hTERT-ρIENβ-GLuc cells were transfected with synthetic 90-mer double-stranded DNA (dsDNA90) at 3 μg/ml using Lipofectamine 2000. 24 hours later, cell media was collected and analyzed for GLuc and SEAP activity using the Secrete-Pair Dual Luminescence Assay Kits (GeneCopoeia).
In additional experiments, hTERT-pIFNB-Gluc cells were treated with LPS1 (1 μg/ml) or transfected with dsDNA90 (3 μg/ml) or 2′-3′ cGAMP (3 μg/ml) for 24 hours. […]
For orientation: Reporter assays use an easily measured gene product as a stand-in for the process of interest.

With poly I:C, the “GLuc expression (Gluc activity normalized by SEAP internal control)” value is on record as “activated”.
